Here are results for 16 molecules from patent publication US11332452B2, “Pesticidal compositions and methods” (priority 2019, dated 2022).

What all share (type): in vivo
The test system of data set [1] is Beet Armyworm (Spodoptera exigua, LAPHEG). Nature of the data set: Insecticidal test for beet armyworm (BAW), 128-well diet tray assay. To be noted: 168 h, 50 μg/cm^2 of test compound on artificial diet, second instar larvae, 25° C., five to seven days, average of eight wells, read-out: BAW % Control (or Mortality) rating. The method, then: Insecticidal Test for Beet Armyworm (Spodoptera exigua, LAPHEG) (“BAW”)
(§1) Bioassays on beet armyworm (BAW; Spodoptera exigua: Lepidoptera) are conducted using a 128-well diet tray assay. One to five second instar BAW larvae are placed in each well (3 mL) of the diet tray that had been previously filled with 1 mL of artificial diet to which 50 μg/cm^2 of the test compound (dissolved in 50 μL of 90:10 acetone-water mixture) had been applied (to each of eight wells) and then allowed to dry. Trays are covered with a clear self-adhesive cover, vented to allow gas exchange, and held at 25° C., 14:10 light-dark for five to seven days. Percent mortality is recorded for the larvae in each well; activity in the eight wells is then averaged.

Data set [2] has as its system Cabbage Looper (Trichloplusia Ni, TRIPNI). Nature of the data set: Insecticidal test for cabbage looper (CL), 128-well diet tray assay. The note with it: Trichoplusia ni, 168 h, read-out: CL % Control (or Mortality) rating. The method, then: Insecticidal Test for Cabbage Looper (Trichloplusia Ni, TRIPNI) (“CL”)
as §1, with “cabbage looper (CL; Trichloplusia ni:” for “beet armyworm (BAW; Spodoptera exigua:”, “CL” for “BAW”

The subject of data set [3] is Yellow Fever Mosquito (Aedes aegypti, AEDSAE). Put plainly: Insecticidal test for yellow fever mosquito (YFM), 96-well plate larval assay. To be noted: from 4000 ppm DMSO master solution, diluted; about 1 day-old larvae; room temperature; scored after 3 days. The method, then:
Insecticidal Test for Yellow Fever Mosquito (Aedes aegypti, AEDSAE) (“YFM”)
Master plates containing 400 μg of a molecule dissolved in 100 μL of dimethyl sulfoxide (DMSO) (equivalent to a 4000 ppm solution) are used. A master plate of assembled molecules contains 15 μL per well. To this plate, 135 μL of a 90:10 water/acetone mixture is added to each well. A robot (Biomek® NXP Laboratory Automation Workstation) is programmed to dispense 15 μL aspirations from the master plate into an empty 96-well shallow plate (“daughter” plate). There are 6 reps (“daughter” plates) created per master. The created “daughter” plates are then immediately infested with YFM larvae.
The day before plates are to be treated, mosquito eggs are placed in Millipore water containing liver powder to begin hatching (4 g. into 400 mL). After the “daughter” plates are created using the robot, they are infested with 220 μL of the liver powder/larval mosquito mixture (about 1 day-old larvae). After plates are infested with mosquito larvae, a non-evaporative lid is used to cover the plate to reduce drying. Plates are held at room temperature for 3 days prior to grading. After 3 days, each well is observed and scored based on mortality.

For the molecule `CC(Cc1ccc(NC(=O)Nc2ccc(OC(F)(F)F)cc2)cc1)NC(=O)/N=C1\SCC(=O)N1c1cc(Cl)ccc1C(C)C` (stereo not drawn) [Compound A35, (Z)-1-(4-(2-(3-(3-(5-Chloro-2-isopropylphenyl)-4-oxothiazolidin-2-ylidene)ureido)propyl)phenyl)-3-(4-(trifluoromethoxy)phenyl)urea], the mortality at 50 µg/cm2 in data set [1] and in data set [2] was 50 to 100% in each case. The “YFM % Control (or Mortality) rating” value in data set [3] is “A (80-100)”.

Regarding `CC(Cc1ccc(NC(=O)Nc2ccc(OC(F)(F)F)cc2)cc1)NC(=O)/N=C1\SCC(=O)N1c1cc(Cl)ccc1OC(F)(F)F` (stereo not drawn) [Compound A36, (Z)-1-(4-(2-(3-(3-(5-Chloro-2-(trifluoromethoxy)phenyl)-4-oxothiazolidin-2-ylidene)ureido)propyl)phenyl)-3-(4-(trifluoromethoxy)phenyl)urea], the mortality at 50 µg/cm2 in data set [1] and in data set [2] was 50 to 100% in each case. The “YFM % Control (or Mortality) rating” value in data set [3] is reported as “A (80-100)”.

For `CCCc1ccc(OC)cc1N1C(=O)CS/C1=N\C(=O)NC(C)Cc1ccc(NC(=O)Nc2ccc(OC(F)(F)F)cc2)cc1` (stereo not drawn) [Compound A37, (Z)-1-(4-(2-(3-(3-(5-Methoxy-2-propylphenyl)-4-oxothiazolidin-2-ylidene)ureido)propyl)phenyl)-3-(4-(trifluoromethoxy)phenyl)urea], the mortality at 50 µg/cm2 in data set [1] and in data set [2] was 50 to 100% throughout. The “YFM % Control (or Mortality) rating” value in data set [3] is “B (More than 0-Less than 80)”.

For the molecule `Cc1ccc(OCC(F)(F)F)c(N2C(=O)CS/C2=N\C(=O)NC(C)Cc2ccc(NC(=O)Nc3ccc(OC(F)(F)F)cc3)cc2)c1` (stereo not drawn) [Compound A38, (Z)-1-(4-(2-(3-(3-(5-Methyl-2-(2,2,2-trifluoroethoxy)phenyl)-4-oxothiazolidin-2-ylidene)ureido)propyl)phenyl)-3-(4-(trifluoromethoxy)phenyl)urea], the mortality at 50 µg/cm2 in data set [1] and in data set [2] was 50 to 100% throughout. For the same molecule, the “YFM % Control (or Mortality) rating” value in data set [3] is given as “B (More than 0-Less than 80)”.

For the molecule `CCC(C)Oc1ccc(C)cc1N1C(=O)CS/C1=N\C(=O)NC(C)Cc1ccc(NC(=O)Nc2ccc(OC(F)(F)F)cc2)cc1` (stereo not drawn) [Compound A39, (Z)-1-(4-(2-(3-(3-(2-(sec-Butoxy)-5-methylphenyl)-4-oxothiazolidin-2-ylidene)ureido)propyl)phenyl)-3-(4-(trifluoromethoxy)phenyl)urea], the mortality at 50 µg/cm2 in data set [1] and in data set [2] was 50 to 100% throughout. In addition, the “YFM % Control (or Mortality) rating” value in data set [3] is reported as “D (No activity noticed in this bioassay)”.

`CCc1cccc(C)c1N1C(=O)CS/C1=N\C(=O)NC(C)Cc1ccc(NC(=O)Nc2ccc(OC(F)(F)F)cc2)cc1` (stereo not drawn) [Compound A40, (Z)-1-(4-(2-(3-(3-(2-Ethyl-6-methylphenyl)-4-oxothiazolidin-2-ylidene)ureido)propyl)phenyl)-3-(4-(trifluoromethoxy)phenyl)urea]: the mortality at 50 µg/cm2 in data set [1] and in data set [2] was 50 to 100% in each case. The “YFM % Control (or Mortality) rating” value in data set [3] is reported as “A (80-100)”.

As to `Cc1cc(Cl)c(N2C(=O)CS/C2=N\C(=O)NC(C)Cc2ccc(NC(=O)Nc3ccc(OC(F)(F)F)cc3)cc2)cc1C` (stereo not drawn) [Compound A41, (Z)-1-(4-(2-(3-(3-(2-Chloro-4,5-dimethylphenyl)-4-oxothiazolidin-2-ylidene)ureido)propyl)phenyl)-3-(4-(trifluoromethoxy)phenyl)urea], the mortality at 50 µg/cm2 in data set [1] and in data set [2] was 50 to 100% each time. Also, in data set [3], the “YFM % Control (or Mortality) rating” value is “B (More than 0-Less than 80)”.

On to `CC(Cc1ccc(NC(=O)Nc2ccc(OC(F)(F)F)cc2)cc1)NC(=O)/N=C1\SCC(=O)N1c1cccc2c1CCCC2` (stereo not drawn) [Compound A42, (Z)-1-(4-(2-(3-(4-Oxo-3-(5,6,7,8-tetrahydronaphthalen-1-yl)thiazolidin-2-ylidene)ureido)propyl)phenyl)-3-(4-(trifluoromethoxy)phenyl)urea], for which the mortality at 50 µg/cm2 in data set [1] and in data set [2] was 50 to 100% each time. Further, in data set [3], the “YFM % Control (or Mortality) rating” value is reported as “A (80-100)”.

On to `Cc1ccc(C(C)C)c(N2C(=O)CS/C2=N\C(=O)Nc2ccc(CNC(=O)Nc3ccc(OC(F)(F)F)cc3)cc2)c1` [Compound A43, (Z)-1-(4-(3-(3-(2-isopropyl-5-methylphenyl)-4-oxothiazolidin-2-ylidene)ureido)benzyl)-3-(4-(trifluoromethoxy)phenyl)urea], for which the mortality at 50 µg/cm2 in data set [1] and in data set [2] was 50 to 100% each time. Also, the “YFM % Control (or Mortality) rating” value in data set [3] is recorded as “A (80-100)”.

On to `Cc1ccc(C(C)C)c(N2C(=O)CS/C2=N\C(=O)Nc2ccc(NC(=S)Nc3ccc(OC(F)(F)F)cc3)cc2)c1` [Compound A45, (Z)-1-(3-(2-isopropyl-5-methylphenyl)-4-oxothiazolidin-2-ylidene)-3-(4-(3-(4-(trifluoromethoxy)phenyl)thioureido)phenyl)urea], for which the mortality at 50 µg/cm2 in data set [1] and in data set [2] was 50 to 100% throughout. The “YFM % Control (or Mortality) rating” value in data set [3] is “A (80-100)”.

Take `Cc1ccc(C(C)C)c(N2C(=O)CS/C2=N\C(=O)NCCc2ccc(NC(=S)Nc3ccc(OC(F)(F)F)cc3)cc2)c1` [Compound A46, (Z)-1-(3-(2-isopropyl-5-methylphenyl)-4-oxothiazolidin-2-ylidene)-3-(4-(3-(4-(trifluoromethoxy)phenyl)thioureido)phenethyl)urea]: the mortality at 50 µg/cm2 in data set [1] and in data set [2] was 50 to 100% each time. For the same molecule, the “YFM % Control (or Mortality) rating” value in data set [3] is “A (80-100)”.

With `Cc1ccc(C(C)C)c(N2C(=O)CS/C2=N\C(=O)Nc2ccc(CCNC(=S)Nc3ccc(OC(F)(F)F)cc3)cc2)c1` [Compound A47, (Z)-1-(3-(2-isopropyl-5-methylphenyl)-4-oxothiazolidin-2-ylidene)-3-(4-(2-(3-(4-(trifluoromethoxy)phenyl)thioureido)ethyl)phenyl)urea], the mortality at 50 µg/cm2 in data set [1] and in data set [2] was 50 to 100% each time. For the same molecule, the “YFM % Control (or Mortality) rating” value in data set [3] was “A (80-100)”.

Turning to `Cc1ccc(C(C)C)c(N2C(=O)CS/C2=N\C(=O)Nc2ccc(NC(=O)c3ccc(OC(F)(F)F)cc3)cc2)c1` [Compound A48, (Z)—N-(4-(3-(3-(2-isopropyl-5-methylphenyl)-4-oxothiazolidin-2-ylidene)ureido)phenyl)-4-(trifluoromethoxy)benzamide], the mortality at 50 µg/cm2 in data set [1] and in data set [2] was 50 to 100% in each case. For the same molecule, the “YFM % Control (or Mortality) rating” value in data set [3] is on record as “A (80-100)”.

As for `Cc1ccc(C(C)C)c(N2C(=O)CS/C2=N\C(=O)NCCc2ccc(NC(=O)c3ccc(OC(F)(F)F)cc3)cc2)c1` [Compound A49, (Z)—N-(4-(2-(3-(3-(2-isopropyl-5-methylphenyl)-4-oxothiazolidin-2-ylidene)ureido)ethyl)phenyl)-4-(trifluoromethoxy)benzamide], the mortality at 50 µg/cm2 in data set [1] was 50 to 100%; in data set [2], 0%. Further, the “YFM % Control (or Mortality) rating” value in data set [3] is listed as “A (80-100)”.

For the molecule `Cc1ccc(C(C)C)c(N2C(=O)CS/C2=N\C(=O)Nc2ccc(CCNC(=O)c3ccc(OC(F)(F)F)cc3)cc2)c1` [Compound A50, (Z)—N-(4-(3-(3-(2-isopropyl-5-methylphenyl)-4-oxothiazolidin-2-ylidene)ureido)phenethyl)-4-(trifluoromethoxy)benzamide], the mortality at 50 µg/cm2 in data set [1] and in data set [2] was 50 to 100% each time. Moreover, in data set [3], the “YFM % Control (or Mortality) rating” value is given as “A (80-100)”.

For the molecule `Cc1ccc(C(C)C)c(N2C(=O)CS/C2=N\C(=O)Nc2ccc(NS(=O)(=O)c3ccc(OC(F)(F)F)cc3)cc2)c1` [Compound A51, (Z)—N-(4-(3-(3-(2-isopropyl-5-methylphenyl)-4-oxothiazolidin-2-ylidene)ureido)phenyl)-4-(trifluoromethoxy)benzenesulfonamide], the mortality at 50 µg/cm2 was 0% in data set [1] and 50 to 100% in data set [2]. In data set [3], the “YFM % Control (or Mortality) rating” value was “B (More than 0-Less than 80)”.

A word on the mortality: it is the percentage killed.
